Assay results reported in US20060088579A1, “Transdermal drug delivery systems” (priority 2002, published 2006).
Where “and” joins values, the source holds several entries; their conditions need not be identical. Equal values may be shown once. Where a name gives a salt, the structure may show the parent alone.

What was measured:
[1] = human, pH 7.4
[2] = Microemulsion phase diagrams, drug load and stability; format: physicochemical; conditions: O/W ME
Experimental: (i) Microemulsion Phase Diagrams. Four microemulsion (ME) systems were investigated to determine their ternary phase diagrams. All percentages are given as mass ratios.
Each of the three components for a system was titrated until a phase change between microemulsion and two phase mixture was observed. The boundary of this transition was recorded over the entire concentration range. A microemulsion was determined as a miscible, optically clear, stable solution. At the transition to a two phase regime, there is a clear clouding of the mixture as well as an eventual separation of the phases.
(ii) Preparation of Formulations. […] Drug flux was tested through ME system 1 at two selected concentrations, one in the W/O region, and the other in the O/W. The W/O system consisted of H2O:IPM:Tween 80 (10:52:38 w/w) while the O/W system contained H2O:Ethanol:IPM:Tween 80 (27:18:16:39 w/w). Both systems stably incorporated 10% w/w NMP and 10% w/w oleyl alcohol. […] The “water phase” sample consisted of the aqueous elements H2O:Ethanol:NMP (51:31:18) in the same relative proportions as if the organic components were removed.

in vitro = conditions: human, pH 7.4
[3] = IPM/NMP binary vehicle transport, 2% w/v lidocaine free base; format: in vitro ADME, human
Description: (iii) Preparation of Skin Samples. […] (iv) Lidocaine Transport Experiments. […] J. […] (v) IPM/NMP Binary Vehicle Transport. […] (vi) Quantification of Lidocaine. […] (vii) Calculations.

[4] = LDA chaperoning: lidocaine and NMP flux with 1% LDA in IPM or NMP solvent; format: in vitro ADME, human; conditions: for NMP Fluxss: NMP solvent
Description: (ii) Preparation of Skin Samples. […] (iii) Transport Experiments. […] J. […] (iv) LDA Chaperoning. […] The LDA's included octadecene, oleyl alcohol, and oleic acid. Similar solutions with NMP as the solvent were also obtained. […] (viii) Quantification of Transport. […] (ix) Calculations. […] D. Results

[5] = H2O/NMP binary vehicle transport
[6] = NMP partitioning between IPM and H2O; format: physicochemical; conditions: equilibrium mixture of H2O and IPM
Experimental: (vii) NMP Patitioning. Distilled water (2 ml), IPM (2 ml), and NMP (40 μl) were thoroughly vortexed in a glass tube. After equilibrating for 1 hour, the sample was centrifuged at 14,000 rpm for 6 minutes and separated into 2 phases. Samples of each phase were taken to determine NMP concentration by HPLC.
(viii) Quantification of Transport.

[7] = human, 24 h, 2 % w/v, pH 7.4
Experimental: Flux through stripped human skin was compared with flux of the same drugs through distilled water. […] All drug concentrations were analyzed by HPLC.

C[C@]12CC[C@@H]3c4ccc(O)cc4CC[C@H]3[C@@H]1CC[C@@H]2O [Estradiol]
time at which steady state is reached in vitro [1]: about 4 hours

CCCCCCCCCCCCCC(=O)OC(C)C [IPM, isopropyl myristate]
% IPM Uptake (maximum) ([2]; Tween 80/Ethanol ratio 1:1): 47 % (w/w) | % IPM Uptake (maximum) ([2]; Tween 80/Ethanol ratio 1:2): 8.3 % (w/w) | % IPM Uptake (maximum) ([2]; Tween 80/Ethanol ratio 2:1): 42 % (w/w) | % IPM Uptake (maximum) ([2]; Tween 80/Ethanol ratio 2:3): 8.1 % (w/w) | % IPM Uptake (maximum) ([2]; Tween 80/Ethanol ratio 4:1): 4.5 % (w/w) | % IPM Uptake (maximum) ([2]; Tween 80/Ethanol ratio 9:1): 1.6 % (w/w)

CN1CCCC1=O [NMP, n-methyl pyrrolidone]
Papp at 24 h, 10 % v/v (in vitro): 0.03 ×10⁻⁶ cm/s | Papp at 24 h, 20 % v/v (in vitro): 0.0178 ×10⁻⁶ cm/s | Papp at 24 h, 40 % v/v (in vitro): 0.0281 ×10⁻⁶ cm/s | Papp at 24 h, 50 % v/v (in vitro): 0.00861 ×10⁻⁶ cm/s | Papp at 24 h, 60 % v/v (in vitro): 0.0758 ×10⁻⁶ cm/s | Papp at 24 h, 80 % v/v (in vitro): 1.74 ×10⁻⁶ cm/s | Papp at 24 h, 90 % v/v (in vitro): 4.36 ×10⁻⁶ cm/s | Papp at 24 h, 100 % v/v (in vitro): 1.75 ×10⁻⁶ cm/s | NMP 24 Hour Transport ([3]; 10% NMP (v/v)): 22.8 ± 3.7 µg | NMP Fluxss ([3]; 10% NMP (v/v)): 1.46 ± 0.9 μg cm^−2 hr^−1 | NMP 24 Hour Transport ([3]; 25% NMP (v/v)): 83.6 ± 5.7 µg | NMP Fluxss ([3]; 25% NMP (v/v)): 5.40 ± 0.49 μg cm^−2 hr^−1 | NMP 24 Hour Transport ([3]; 50% NMP (v/v)): 112 ± 5.3 µg | NMP Fluxss ([3]; 50% NMP (v/v)): 9.01 ± 0.84 μg cm^−2 hr^−1 | NMP 24 Hour Transport ([3]; 60% NMP (v/v)): 134 ± 13 µg | NMP Fluxss ([3]; 60% NMP (v/v)): 11.2 ± 1.2 μg cm^−2 hr^−1 | NMP 24 Hour Transport ([3]; 75% NMP (v/v)): 161 ± 6 µg | NMP Fluxss ([3]; 75% NMP (v/v)): 14.0 ± 0.9 μg cm^−2 hr^−1 | NMP 24 Hour Transport ([3]; 90% NMP (v/v)): 128 ± 1 µg | NMP Fluxss ([3]; 90% NMP (v/v)): 11.7 ± 0.1 μg cm^−2 hr^−1 | NMP 24 Hour Transport ([3]; 100% NMP (v/v)): 115 ± 0.2 µg | NMP Fluxss ([3]; 100% NMP (v/v)): 10.7 ± 0.2 μg cm^−2 hr^−1 | NMP Fluxss ([4]; 1% w/v isopropyl myristate): 15.8 ± 3.6 mg/cm^2/hr | NMP Fluxss ([4]; 1% w/v octadecene): 15.3 ± 1.2 mg/cm^2/hr | NMP Fluxss ([4]; 1% w/v oleic acid): 17.6 ± 2.0 mg/cm^2/hr | NMP Fluxss ([4]; 1% w/v oleyl alcohol): 20.7 ± 1.0 mg/cm^2/hr | NMP Fluxss ([4]; no LDA): 12.6±0.5 mg/cm^2/hr | flux of NMP through human skin ([4]; approximate value): ~10 mg/cm^2/hr | NMP Fluxss ([5]; 10% NMP): 0.007 ± 0.007 μg/cm^2/hr | NMP Fluxss ([5]; 20% NMP): 0.008 ± 0.003 μg/cm^2/hr | NMP Fluxss ([5]; 40% NMP): 0.026 ± 0.021 μg/cm^2/hr | NMP Fluxss ([5]; 50% NMP): 0.010 ± 0.002 μg/cm^2/hr | NMP Fluxss ([5]; 60% NMP): 0.106 ± 0.058 μg/cm^2/hr | NMP Fluxss ([5]; 80% NMP): 3.26 ± 0.74 μg/cm^2/hr | NMP Fluxss ([5]; 90% NMP): 9.18 ± 0.53 μg/cm^2/hr | NMP Fluxss ([5]; 100% NMP): 12.6 ± 0.5 μg/cm^2/hr | NMP partition in the water phase [6]: 98% | [IPM]/[H2O] partition coefficient of NMP [6]: 0.02±0.001 and 0.02

CCCNC(C)C(=O)Nc1ccccc1C (centres unmarked) [Prilocaine HCl]
Fluxss from H2O [7]: 2.44 ± 0.98 μg/cm^2/hr | Fluxss from H2O/NMP [7]: 6.31 ± 0.14 μg/cm^2/hr
